The nature of data set [1]: Stability of indirubin prodrugs in simulated fluids (FaSSIF, FaSSGF), 24 h at 37° C., UPLC-MS. Type of data set: physicochemical. Here is the method:
10.41 g fasted state simulated intestinal fluid (FaSSIF) buffer concentrate was dissolved in 240.3 g deionized water and 560 mg FaSSIF powder added. The mixture was stirred until complete dissolution observed. The test compound (approx. 1-3 mg) was placed in 5.00 mL of FaSSIF solution. Samples of the solution with the test compound were taken after 24 hours in at 37° C. (oven-controlled temperature).
36.78 g fasted state simulated gastric fluid (FaSSGF) buffer concentrate was dissolved in 961.9 g deionized water and 60 mg FaSSGF powder added. The mixture was stirred until complete dissolution observed. The test compound (approx. 1-3 mg) was placed in 5.00 mL of FaSSGF solution. Samples of the solution with the test compound were taken after 24 hours in at 37° C. (oven-controlled temperature).
UPLC-MS analysis of the samples taken at 24 hours was carried out on a Waters Acquity UPLC system consisting of an Acquity I-Class Sample Manager-FL, Acquity I-Class Binary Solvent Manager and an Acquity UPLC Column Manager. UV detection was afforded using an Acquity UPLC PDA detector (scanning from 210 to 400 nm), whilst mass detection was achieved using an Acquity QDa detector (mass scanning from 100-1250 Da; positive and negative modes simultaneously), and ELS detection was achieved using an Acquity UPLC ELS Detector. A Waters Acquity UPLC BEH C18 column (2.1 Å˜50 mm, […]) was used to separate the analytes. Samples were prepared by dissolution (with or without sonication) into 1 mL of 50% (v/v) MeCN in water. The resulting solutions were then filtered through a […] syringe filter before submitting for analysis. All of the solvents, including formic acid and 36% ammonia solution, were purchased as the HPLC grade.

The nature of data set [2]: Time course of conversion to indirubin in FaSSIF at 37° C.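 For all read-outs here: test compound, about 1-3 mg in 5 mL FaSSIF, sampled and analysed by UPLC-MS with PDA UV (210-400 nm), QDa mass and evaporative light scattering detection.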 Type of data set: physicochemical. To be noted: for Conversion to indirubin: over a 24 hour period.

Turning to `C=CCOC(=O)N1C(=O)/C(=C2\Nc3ccccc3C2=O)c2ccccc21`, in data set [1] (FaSSGF 37° C. 24 h), the “Fraction (percent) of indirubin” value is recorded as 0% and the “Fraction (percent) of starting material (SM)” value (shortened to “Fraction (percent) … (SM)”) is reported as 100%. Also, in data set [1] (FaSSIF 37° C. 24 h), the “Fraction (percent) of indirubin” value is given as 2% and the “Fraction (percent) … (SM)” value is listed as 88%.
Consider `CN1CCC(NC(=O)N2C(=O)/C(=C3\Nc4ccccc4C3=O)c3ccccc32)CC1=O` (stereo not shown), for which the “Fraction (percent) of indirubin” value in data set [1] (FaSSGF 37° C. 24 h) and in data set [1] (FaSSIF 37° C. 24 h) was 0% in each case. The “Fraction (percent) … (SM)” value in data set [1] (FaSSGF 37° C. 24 h) and in data set [1] (FaSSIF 37° C. 24 h) was 100% throughout.
With `O=C1/C(=C2/C(=O)N(CSc3ccccc3)c3ccccc32)Nc2ccccc21`, in data set [1] (FaSSGF 37° C. 24 h), the “Fraction (percent) of indirubin” value is 0% and the “Fraction (percent) … (SM)” value was 100%. For the same compound, in data set [1] (FaSSIF 37° C. 24 h), the “Fraction (percent) of indirubin” value was 0% and the “Fraction (percent) … (SM)” value is 100%.
Consider `O=C1/C(=C2/C(=O)N(C(=O)NCCNS(=O)(=O)C(F)(F)F)c3ccccc32)Nc2ccccc21`, for which, in data set [1] (FaSSGF 37° C. 24 h), the “Fraction (percent) of indirubin” value was 1% and the “Fraction (percent) … (SM)” value was 93%. In data set [1] (FaSSIF 37° C. 24 h), the “Fraction (percent) of indirubin” value was 0% and the “Fraction (percent) … (SM)” value is recorded as 100%.
Take `CN1CCN(CCNC(=O)N2C(=O)/C(=C3\Nc4ccccc4C3=O)c3ccccc32)CC1`: in data set [1] (FaSSGF 37° C. 24 h), the “Fraction (percent) of indirubin” value is given as 2% and the “Fraction (percent) … (SM)” value was 93%. Besides, in data set [1] (FaSSIF 37° C. 24 h), the “Fraction (percent) of indirubin” value is 0% and the “Fraction (percent) … (SM)” value is 100%.
With `O=C1/C(=C2/C(=O)N(CN3CCC3)c3ccccc32)Nc2ccccc21` [drawing 266], the indirubin in data set [2] (FaSSIF 37° C. 24 h) amounted to 20%; in data set [2] (FaSSIF 37° C., 15 min), 9%; in data set [2] (FaSSIF 37° C., 30 min), 8%; in data set [2] (FaSSIF 37° C., 1 h), 10%; in data set [2] (FaSSIF 37° C., 2 h) it was 13%. The indirubin methylene alcohol in data set [2] (FaSSIF 37° C. 24 h) is reported as 7%; in data set [2] (FaSSIF 37° C., 15 min) it was 5%; in data set [2] (FaSSIF 37° C., 30 min) it was 5%; in data set [2] (FaSSIF 37° C., 1 h) it was 5%; in data set [2] (FaSSIF 37° C., 2 h), 4%. Further, the “starting material (prodrug compound)” value in data set [2] (FaSSIF 37° C. 24 h) is reported as 62%; in data set [2] (FaSSIF 37° C., 15 min) it was 72%; in data set [2] (FaSSIF 37° C., 30 min), 79%; in data set [2] (FaSSIF 37° C., 1 h), 80%; in data set [2] (FaSSIF 37° C., 2 h), 75%. Further, the Conversion to indirubin in data set [2] (FaSSIF 37° C.) was 0-20%.
For `CNCCNC(=O)N1C(=O)/C(=C2\Nc3ccccc3C2=O)c2ccccc21.Cl` [drawing 264], the indirubin in data set [2] (FaSSIF 37° C. 24 h) is listed as 0%; in data set [2] (FaSSIF 37° C., 15 min) it was 0%; in data set [2] (FaSSIF 37° C., 30 min) it was 0%; in data set [2] (FaSSIF 37° C., 1 h), 0%; in data set [2] (FaSSIF 37° C., 2 h) it was 0%. In addition, the indirubin methylene alcohol in data set [2] (FaSSIF 37° C. 24 h) amounted to 0%; in data set [2] (FaSSIF 37° C., 15 min) it was 0%; in data set [2] (FaSSIF 37° C., 30 min), 0%; in data set [2] (FaSSIF 37° C., 1 h), 0%; in data set [2] (FaSSIF 37° C., 2 h), 0%. The “starting material (prodrug compound)” value in data set [2] (FaSSIF 37° C. 24 h) stood at 100%; in data set [2] (FaSSIF 37° C., 15 min), 100%; in data set [2] (FaSSIF 37° C., 30 min) it was 100%; in data set [2] (FaSSIF 37° C., 1 h), 100%; in data set [2] (FaSSIF 37° C., 2 h) it was 100%. For the same compound, in data set [2] (FaSSIF 37° C.), the Conversion to indirubin is listed as 0-20%.
Turning to `CN1CCN(CN2C(=O)/C(=C3\Nc4ccccc4C3=O)c3ccccc32)CC1` [drawing 265], the indirubin in data set [2] (FaSSIF 37° C. 24 h) was determined as 30%; in data set [2] (FaSSIF 37° C., 15 min), 8%; in data set [2] (FaSSIF 37° C., 30 min), 12%; in data set [2] (FaSSIF 37° C., 1 h) it was 11%; in data set [2] (FaSSIF 37° C., 2 h), 18%. Moreover, the indirubin methylene alcohol came to 0% in data set [2] (FaSSIF 37° C. 24 h); 0% in data set [2] (FaSSIF 37° C., 15 min); 0% in data set [2] (FaSSIF 37° C., 30 min); 0% in data set [2] (FaSSIF 37° C., 1 h); 0% in data set [2] (FaSSIF 37° C., 2 h). The “starting material (prodrug compound)” value in data set [2] (FaSSIF 37° C. 24 h) is listed as 53%; in data set [2] (FaSSIF 37° C., 15 min), 80%; in data set [2] (FaSSIF 37° C., 30 min), 74%; in data set [2] (FaSSIF 37° C., 1 h), 77%; in data set [2] (FaSSIF 37° C., 2 h), 68%. Besides, the Conversion to indirubin in data set [2] (FaSSIF 37° C.) is 0-20%.
Take `O=C1/C(=C2/C(=O)N(COS(=O)(=O)O)c3ccccc32)Nc2ccccc21` [drawing 262]: the indirubin is listed as 12% in data set [2] (FaSSIF 37° C. 24 h); 7% in data set [2] (FaSSIF 37° C., 15 min); 14% in data set [2] (FaSSIF 37° C., 30 min); 7% in data set [2] (FaSSIF 37° C., 1 h); 7% in data set [2] (FaSSIF 37° C., 2 h). For the same compound, the indirubin methylene alcohol in data set [2] (FaSSIF 37° C. 24 h) worked out at 83%; in data set [2] (FaSSIF 37° C., 15 min), 79%; in data set [2] (FaSSIF 37° C., 30 min), 73%; in data set [2] (FaSSIF 37° C., 1 h), 81%; in data set [2] (FaSSIF 37° C., 2 h), 83%. Also, the “starting material (prodrug compound)” value turned out to be 0% in data set [2] (FaSSIF 37° C. 24 h); 0% in data set [2] (FaSSIF 37° C., 15 min); 0% in data set [2] (FaSSIF 37° C., 30 min); 0% in data set [2] (FaSSIF 37° C., 1 h); 0% in data set [2] (FaSSIF 37° C., 2 h). Moreover, the Conversion to indirubin in data set [2] (FaSSIF 37° C.) is reported as 0-20%.
In the case of `CN(C)CCN(CCN(C)C)CN1C(=O)/C(=C2\Nc3ccccc3C2=O)c2ccccc21` [drawing 257], the indirubin in data set [2] (FaSSIF 37° C. 24 h) was determined as 74%; in data set [2] (FaSSIF 37° C., 15 min), 78%; in data set [2] (FaSSIF 37° C., 30 min), 78%; in data set [2] (FaSSIF 37° C., 1 h), 78%; in data set [2] (FaSSIF 37° C., 2 h), 83%. Moreover, the indirubin methylene alcohol in data set [2] (FaSSIF 37° C. 24 h) amounted to 4%; in data set [2] (FaSSIF 37° C., 15 min), 13%; in data set [2] (FaSSIF 37° C., 30 min), 13%; in data set [2] (FaSSIF 37° C., 1 h), 13%; in data set [2] (FaSSIF 37° C., 2 h), 10%. Besides, the “starting material (prodrug compound)” value in data set [2] (FaSSIF 37° C. 24 h) amounted to 0%; in data set [2] (FaSSIF 37° C., 15 min), 6%; in data set [2] (FaSSIF 37° C., 30 min), 6%; in data set [2] (FaSSIF 37° C., 1 h), 6%; in data set [2] (FaSSIF 37° C., 2 h), 4%. Further, the Conversion to indirubin in data set [2] (FaSSIF 37° C.) is on record as 60-80%.
